In US6080771A, “DC107 derivatives” (Kyowa Hakko Kogyo Co., Ltd., priority 1996, dated 2000):
Values after ≈ are worked out from the molar mass of the structure shown. Where two headings read alike, the source gives them in different places.

Experiments:
[1] = system: Enterococcus hirae ATCC 10541; assay: Antimicrobial activity, agar dilution method (MIC), EH; conditions: pH 7
Method: Antimicrobial activity was determined by the agar dilution method using a culture medium (pH 7) prepared by dissolving 3 g of Bacto-Tryptone (manufactured by Difco, Co.), 3 g of meat extract, 1 g of yeast extract, 1 g of glucose, and 16 g of agar in 1 l of water.
EH: Enterococcus hirae ATCC 10541

Escherichia coli ATCC 26 = assay: Antimicrobial activity, agar dilution method (MIC), EC; assay type: cell-based
Excerpt: | EC: Escherichia coli ATCC 26

[2] = system: Klebisiella pneumoniae ATCC 10031; assay: Antimicrobial activity, agar dilution method (MIC), KP; assay type: cell-based
Excerpt: | KP: Klebisiella pneumoniae ATCC 10031

[3] = system: Staphylococcus aureus ATCC 6538P; assay: Antimicrobial activity, agar dilution method (MIC), SA; assay type: cell-based; conditions: ATCC6538P, pH 7, read-out: MIC, SA
Excerpt: | SA: Staphylococcus aureus ATCC 6538P

[4] = system: Sarcoma 180 mouse solid tumor; assay: Antitumor activity against Sarcoma 180 mouse solid tumor; assay type: in vivo, male ddY mice; conditions: Sarcoma-180, iv, 168 h, single i.v., tumor volume on day 7 from transplant, read-out: T/C (tumor volume ratio treated/control)
Method: To a ddY mouse were intraperitoneally transplanted 5×10^6 sarcoma 180 cells. On the seventh day from the transplant, the cells were collected from the ascites, washed once with sterilized physiological saline, and then diluted with sterilized physiological saline to prepare a cell suspension having a concentration of 5×10^7 cells/mL. This suspension was transplanted in an amount of 0.01 mL to a subcutaneous part of the right axilla of each of male ddY mice each weighing 20±1 g.
A test compound was dissolved in physiological saline containing polyoxyethylene sorbitan monolaurate. At 24 hours after the tumor transplant, 0.2 mL of the solution was intravenously administered to the tail of each of a group of five mice.

[5] = system: Bacillus substilis NO. 10707; assay: Antimicrobial activity, agar dilution method (MIC), BS; assay type: cell-based
Excerpt: | BS: Bacillus substilis NO. 10707

HeLa S3 cells = assay: HeLa S3 cell growth inhibition test (Neutral Red); assay type: cell-based; conditions: Homo sapiens, read-out: HeLa S3 Cell Growth Inhibition Activity, IC50
Method: In each well of a 96-well microtiter plate was placed 0.1 mL of HeLa S3 cells having a concentration of 8×10^3 cells/mL and prepared in an MEM culture medium containing 10% fetal bovine serum and 2 mM glutamine. After the cells were incubated overnight at 37° C. in a carbon dioxide incubator, a test compound suitably diluted with a medium was added to the wells in an amount of 0.05 mL for each well. The cells were incubated at 37° C. for 72 hours in a carbon dioxide incubator. After the culture supernatant was removed, 0.1 mL of a culture medium containing 0.02% Neutral Red was added to each well. The cells were then incubated at 37° C. for 1 hour in a carbon dioxide incubator to dye the cells. After the culture supernatant was removed, each residue was rinsed once with physiological saline and the pigment was extracted with 0.001N hydrochloric acid/30% ethanol. The absorbance at 550 nm of each extract was measured with a microplate reader. The drug concentration required for the 50% inhibition of cell growth, which is referred to as IC50, was calculated by comparing the absorbance for untreated cells with those for cells treated with the drug in known concentrations.

[6] = ATCC26, pH 7, read-out: MIC, EC
[7] = agar dilution, pH 7, read-out: MIC, KP
[8] = NO.10707, agar dilution, pH 7, read-out: MIC, BS
[9] = ATCC26, agar dilution, pH 7, read-out: MIC, EC

Row | Structure (SMILES) | MIC, EH [1] [mg/L] | MIC [2, 7] [mg/L] | MIC ([3]; agar dilution) [mg/L] | response vs control in vivo at 8 mg/kg [4] [%] | MIC [5, 8] [mg/L] | also measured
1 | COCCOCC(=O)OCCOCCOCC(=O)OC1/C=C(\C)CCC2(CC(=O)NC(C)c3nc(cs3)/C=C\C=C\C1=O)[S+]([O-])SC(=O)C2(C)O (stereo not shown) [Compound 31] | 0.11 (≈ 0.142 µM) | 0.057 (≈ 0.0737 µM) | 0.11 (≈ 0.142 µM) | 12 | 0.057 (≈ 0.0737 µM) | MIC (Escherichia coli ATCC 26; [6]): 3.65 mg/L (≈ 4.72 µM)
2 | C/C1=C\C(OC(=O)COCCCO)C(=O)/C=C/C=C\c2csc(n2)C(C)NC(=O)CC2(CC1)[S+]([O-])SC(=O)C2(C)O (stereo not shown) [Compound 33] | 0.065 (≈ 0.104 µM) | 0.13 (≈ 0.207 µM) | 0.13 (≈ 0.207 µM) |  | 0.065 (≈ 0.104 µM) | MIC (Escherichia coli ATCC 26; [9]): 1 mg/L (≈ 1.6 µM); response vs control in vivo at 2 mg/kg [4]: 36%
3 | C/C1=C\C(OC(=O)COCCCCO)C(=O)/C=C/C=C\c2csc(n2)C(C)NC(=O)CC2(CC1)[S+]([O-])SC(=O)C2(C)O (stereo not shown) [Compound 35] | 0.098 (≈ 0.153 µM) | 0.098 (≈ 0.153 µM) | 0.098 (≈ 0.153 µM) |  | 0.2 (≈ 0.312 µM) | MIC (Escherichia coli ATCC 26; [6]): 1.6 mg/L (≈ 2.5 µM); response vs control in vivo at 4 mg/kg [4]: 22%
4 | C/C1=C\C(OC(=O)COCCOCCOCCOCCO)C(=O)/C=C/C=C\c2csc(n2)C(C)N2C(=O)CC(C(C)(O)C(=O)SCc3oc(=O)oc3C)(CC1)[S+]2[O-] (stereo not shown) [Compound 38] | 1.8 (≈ 2.1 µM) |  |  | 43 |  | MIC ([2]; pH 7, read-out: MIC, KP): 1.8 mg/L (≈ 2.1 µM); MIC [3]: 3.7 mg/L (≈ 4.32 µM); MIC ([5]; NO.10707, pH 7, read-out: MIC, BS): 1.8 mg/L (≈ 2.1 µM)
5 | COCCOCCOCC(=O)OC1/C=C(\C)CCC2(C(C)(O)C(=O)SCOC(=O)OCCN3CCCC3=O)CC(=O)N(C(C)c3nc(cs3)/C=C\C=C\C1=O)[S+]2[O-] (stereo not shown) [Compound 44] |  |  |  |  |  | response vs control in vivo at 2 mg/kg [4]: 43%
6 | COCCOCCOCC(=O)OC1/C=C(\C)CCC2(C(C)(O)C(=O)SCOC(=O)OCCOCCOC)CC(=O)N(C(C)c3nc(cs3)/C=C\C=C\C1=O)[S+]2[O-] (stereo not shown) [Compound 45] |  |  |  |  |  | response vs control in vivo at 4 mg/kg [4]: 45%
7 | COCCOCCOCC(=O)OC1/C=C(\C)CCC2(C(C)(O)C(=O)SCOC(=O)COCCOCCO)CC(=O)N(C(C)c3nc(cs3)/C=C\C=C\C1=O)[S+]2[O-] (stereo not shown) [Compound 47] |  |  |  | 40 |  | 
8 | CC(=O)OCC1OC(OC2C=C(C)CCC3(CC(=O)NC(C)c4nc(cs4)C=CC=CC2=O)[S+]([O-])SC(=O)C3(C)O)C=CC1OC(C)=O (stereo not shown) [Compound 50] | 0.020 (≈ 0.0277 µM) | 0.16 (≈ 0.221 µM) | 0.02 (≈ 0.0277 µM) |  | 0.02 (≈ 0.0277 µM) | MIC (Escherichia coli ATCC 26; [9]): 0.16 mg/L (≈ 0.221 µM); IC50 (HeLa S3 cells; HeLa S3, 72 hours, 37° C.): 3.5 nM
9 | CC(=O)OC[C@H]1OC(OC2/C=C(\C)CCC3(CC(=O)NC(C)c4nc(cs4)/C=C\C=C\C2=O)[S+]([O-])SC(=O)C3(C)O)C[C@@H](OC(C)=O)[C@@H]1OC(C)=O (stereo partly shown) [Compound 53] | 0.20 (≈ 0.255 µM) | 1.6 (≈ 2.04 µM) | 0.098 (≈ 0.125 µM) |  | 0.098 (≈ 0.125 µM) | MIC (Escherichia coli ATCC 26; [6]): 25 mg/L (≈ 31.9 µM); IC50 (HeLa S3 cells; HeLa S3, 72 h): 16 nM
10 | CC(=O)O[C@@H]1C=CC(OC2/C=C(\C)CCC3(CC(=O)NC(C)c4nc(cs4)/C=C\C=C\C2=O)[S+]([O-])SC(=O)C3(C)O)O[C@H]1C (stereo partly shown) [Compound 57] | 0.13 (≈ 0.196 µM) | 0.26 (≈ 0.391 µM) | 0.13 (≈ 0.196 µM) |  | 0.033 (≈ 0.0496 µM) | MIC (Escherichia coli ATCC 26; [6]): 0.52 mg/L (≈ 0.782 µM); IC50 (HeLa S3 cells; HeLa S3, 72 h): 16 nM
11 | CC(=O)O[C@H]1[C@H](C)OC(OC2/C=C(\C)CCC3(C(C)(O)C(=O)SCc4oc(=O)oc4C)CC(=O)N(C(C)c4nc(cs4)/C=C\C=C\C2=O)[S+]3[O-])C[C@@H]1OC(C)=O (stereo partly shown) [Compound 66] |  |  |  |  |  | IC50 (HeLa S3 cells; HeLa S3, 72 hours, 37° C.): 6.1 nM; response vs control in vivo at 4 mg/kg [4]: 47%
12 | C/C1=C\C(OC2C=C[C@@H](O)[C@H](C)O2)C(=O)/C=C/C=C\c2csc(n2)C(C)N2C(=O)CC(C(C)(O)C(=O)SCc3oc(=O)oc3C)(CC1)[S+]2[O-] (stereo partly shown) [Compound 67] |  |  |  | 44 |  | 
13 | CC(=O)O[C@@H]1C=CC(OC2/C=C(\C)CCC3(C(C)(O)C(=O)SCc4oc(=O)oc4C)CC(=O)N(C(C)c4nc(cs4)/C=C\C=C\C2=O)[S+]3[O-])O[C@H]1C (stereo partly shown) [Compound 68] |  |  |  | 50 |  | 
14 | CC(=O)O[C@@H]1C=CC(OC2/C=C(\C)CCC3(C(C)(O)C(=O)SCc4oc(=O)oc4C)CC(=O)N(C(C)c4nc(cs4)/C=C\C=C\C2=O)[S+]3[O-])O[C@H]1C (stereo partly shown) [Compound 69] |  |  |  |  |  | IC50 (HeLa S3 cells; HeLa S3, 72 hours, 37° C.): 3.2 nM
